Laboratory results: ChEMBL document CHEMBL1141330, “Vanillic acid derivatives from the green algae Cladophora socialis as potent protein tyrosine phosphatase 1B inhibitors” (J Nat Prod, 2007)

Biological target: T1, Tyrosine-protein phosphatase non-receptor type 1 (Homo sapiens, UniProt P18031)
T1 sequence (P18031 whole entry): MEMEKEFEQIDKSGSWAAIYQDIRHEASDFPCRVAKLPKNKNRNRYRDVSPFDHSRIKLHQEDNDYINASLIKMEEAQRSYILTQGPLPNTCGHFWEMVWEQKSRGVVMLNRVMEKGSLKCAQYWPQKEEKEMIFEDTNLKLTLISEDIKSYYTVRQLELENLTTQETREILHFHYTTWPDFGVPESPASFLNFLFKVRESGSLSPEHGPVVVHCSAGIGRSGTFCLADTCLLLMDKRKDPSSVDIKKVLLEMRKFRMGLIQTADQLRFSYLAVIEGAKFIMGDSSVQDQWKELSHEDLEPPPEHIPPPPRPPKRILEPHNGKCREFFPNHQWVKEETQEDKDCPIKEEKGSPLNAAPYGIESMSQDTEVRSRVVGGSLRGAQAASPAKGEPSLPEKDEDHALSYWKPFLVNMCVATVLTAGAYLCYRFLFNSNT
Assay: Inhibition of PTP1B

## O=C(O)c1cc2oc3c(Oc4ccc(-c5ccc(O)c(O)c5)cc4O)cc(O)cc3c2cc1O
  IC50: 3710 nM

## O=C(O)c1cc2oc3c(Oc4ccc(-c5ccc(OS(=O)(=O)O)c(O)c5)cc4O)cc(O)cc3c2cc1O
  IC50: 1700 nM
